Assay results as given in patent US8492347B2, “Peptide for induction of immune tolerance as treatment for systemic lupus erythematosus” (The Regents of the University of California, priority 2007, dated 2013).
Where no end group is shown, it is not given here. [ ]: non-standard residue; d: D form.

Columns and labels:
Format in all cases: in vivo
BWF1 mice [1] = test: cytokine and Foxp3 mRNA in mesenteric lymph nodes after peptide feeding; conditions: mesenteric lymph nodes one week after feeding
Description: Cytokine measurement in the supernatant of cultured spleen cells was done with BD OptEIA™ ELISA kits (BD Biosciences and Bio legends Inc., San Diego, Calif.) for IFNγ, IL-2, TGFβ and IL-10. Intracellular mRNA encoding IFNγ, IL-10, Foxp3 and TGFβ was analyzed by real-time RT PCR. GAPDH was used as a house-keeping gene for normalization.
Real-time PCR was analyzed according to art accepted protocols (see, e.g. Hahn et al., Ann NY Acad Sci 2005; 1051:433-41). Briefly, total RNA was isolated with TRIzol (Invitrogen Life Technologies, Carlsbad, Calif.) as per manufacturer's protocol. Reverse transcription used 50 ng of total RNA. The oligonucleotide sequences used for the primers and TaqMan probes are as follows; IFN-γ forward, 5′ TGA GAC AGA AGT TCT GGG CTTCT 3′ (SEQ ID NO: 9); reverse, 5′ CAAGAT GCA GTG TGT AGC GTTCA 3′ (SEQ ID NO: 10): probe, 6FAM TCC TGCGGCCTAGCTCTGAGA TAMRA (SEQ ID NO: 11). IL-10 forward, 5′ CAGCCGGGAAGACAATAACTG 3′ (SEQ ID NO: 12); reverse, 5′ CCGCAGCTCTAGGAGCATGT 3′ (SEQ ID NO: 13); probe 6FAM ACCCACTTCCCAGTCGGCCAGAG TAMRA. TGFβ forward, 5′ AAACGGAAGCGCATCGAA 3′ (SEQ ID NO: 14); reverse, 5′ […] 3′ (SEQ ID NO: 15), probe 6FAM […] TAMRA (SEQ ID NO: 16). Foxp3 forward, 5′[…] 3′ (SEQ ID NO: 17); reverse, 5′ […] 3′ (SEQ ID NO: 18); probe 6FAM […] TAMRA (SEQ ID NO: 19). The amplification primers were at 900 nM and the probe at 200 nM. A passive reference dye (ROX) provided an internal standard for normalization of FAM fluorescence, correcting for fluctuations due to volume changes. For relative quantitation, a standard curve was constructed for each primer and probe set, using total RNA. RNA was isolated from spleen cells of 10-13 week-old naïve or tolerized mice. Spleen cells from 2 to 3 mice in each group were pooled for each experimental group. For some experiments, CD4^+ and CD8^+ cells were isolated by positive selection using micro beads with Miltenyi AutoMACS as described above. A ribosomal RNA control primer and probe set (Applied Biosystems) were used for normalization purposes. […]

BWF1 mice [2] = test: anti-DNA antibodies (ELISA) in mice fed peptide; conditions: 250 ug fed 5 days out of each 30 from age 10 weeks
Description: Anti-DNA antibodies were measured by ELISA and proteinuria by Azostix (see, e.g. Yang et al., J. I., 2003, 171: 2142-2153).
We also observed the clinical effects of feeding either D- or L-peptides at the low, medium and high doses of each. Because mRNA analysis of mesenteric lymph nodes provided evidence that high dose D-peptide would induce tolerance, we began new experiments to compare high dose (250 ug) feedings of D-peptide to the same dose of L-peptide. A control group was fed saline on the same schedule as the peptide feedings, which is daily for 5 days out of each 30 days. Each group contains 14 mice; treatment was begun at age 10 weeks. Observed effects on anti-DNA are as follows. […] Note that the saline control group is lower than the positive control anti-DNA, which is serum from BWF1 mice with heavy proteinuria and imminent death. Thus, the saline control has not reached the expected high level at this point but should do so in the next 2 months.

BWF1 mice [3] = test: survival and clinical disease in BWF1 mice given L-pCons intravenously; conditions: 1 mg i.v. monthly from age 10 weeks
Description: FIG. 3 provides a graph of data showing the suppression of clinical disease that occurs in BWF1 mice treated monthly from age 10 weeks with 1 mg of L-pCons administered intravenously.
For tolerance induction, ten-to-twelve week-old BWF1 mice received a single i.v. dose of 1 mg of one of the peptides, dissolved in saline, as reported previously (see, e.g. Singh et al., J Clin Invest 1995; 96:2990-6). Controls in selected experiments were either treated with saline or control peptides.
Using 50% mortality times, the lifespan is prolonged 30-32 weeks. […] A similar study has been started with D-pCons administered orally; results are anticipated in 30 weeks. Serum is obtained at regular intervals for anti-DNA testing; urine is tested for proteinuria monthly (when 2+ appears mice are tested weekly), and survival is measured daily.
Since this increase in survival was small (6 weeks), we developed an algorithm based on 435 VH sequence peptides to create an artificial 15-mer peptide containing amino acid sequences which bind to I-Ed (one of the MHC Class II molecules in BWF1) and to be stimulatory for BWF1 T cells—which we called pConsensus or pCons. […] The control artificial 15-mer, pNegative (pNeg) was constructed to bind I-Ed but not stimulate T cells. […]

Row | Sequence | mRNA pattern: increase in Foxp3 and TGFb with decrease in IFNg (BWF1 mice [1]; high dose 250 ug fed, listed as D-peptide) | anti-DNA antibody levels vs saline (BWF1 mice [2]; at 24 weeks of age, not statistically significant) | anti-DNA antibody levels vs saline (BWF1 mice [2]; at 34 weeks, one-tailed t test, listed as D-peptide) | mRNA pattern: increase in Foxp3 and TGFb with decrease in IFNg (BWF1 mice [1]; high dose 250 ug fed, listed as L-peptide) | mRNA pattern: increase in Foxp3 and TGFb with decrease in IFNg (BWF1 mice [1]; middle dose 100 ug fed, listed as L-peptide) | appearance of IgG anti-DNA in serum and of nephritis (BWF1 mice [3]) | lifespan prolonged, using 50% mortality times (BWF1 mice [3]) | anti-DNA antibody levels vs saline (BWF1 mice [2]; at 34 weeks, one-tailed t test, listed as L-peptide)
1 | FIEWNKLRFRQGLEW ([dF][dI][dE][dW][dN][dK][dL][dR][dF][dR][dQ]G[dL][dE][dW]) [D-pCons] | All desired features | trends to lower anti-DNA antibody levels | borderline (p=0.17 by one-tailed t test) | – | – | – | – | –
2 | FIEWNKLRFRQGLEW [L-pCons] | – | – | – | all desired features | all desired features | significant delay | 30-32 weeks | significantly lower than saline (p=0.03)
